The values below come from patent publication US20150368242A1, “NOVEL TETRAHYDROPYRIDOPYRIMIDINONE DERIVATIVE” (Ajinomoto Co., Inc., priority 2013, published 2015).

Where a name gives a salt, the structure may show the parent alone.

For assay [1], the system named is orally lipid-loaded mouse model (C57BL/6J mice). In words: Test for lipid absorption inhibitory action (orally lipid-loaded mouse model). The assay is classed as in vivo. As to conditions: for Lipid absorption inhibition ratio (%): 30 mg/kg oral, plasma neutral fat AUC up to 6 hours after corn oil. On the procedure: The lipid absorption inhibitory action of the compounds of Examples 5 and 60 and the compound of Comparative Example 1 was examined in an orally lipid-loaded mouse model. In this test, 10 to 11-week old male C57BL/6J mice (CLEA Japan, Inc.) were used. After the mice were fasted for 17 hours from the preceding day, blood was collected from the fundus, and further the mice were subjected to forced oral administration of one of the compounds or the medium (0.5% methyl cellulose). Thirty minutes after the administration, tyloxapol (500 mg/kg) was administered into the tail vein, and corn oil (200 μl) was orally administered (n=5-6). Blood was collected via the tail vein 2, 4, and 6 hours after the administration of corn oil, and plasma was obtained by centrifuging the blood. The neutral fat concentration in the plasma was measured by using Triglyceride E-Test Wako (Wako Pure Chemical Industries, Ltd.). The neutral fat concentration in the plasma before the administration of the compound was taken as the value at 0 hours, and the area under the curve (AUC) of the neutral fat concentration in the plasma up to 6 hours after the administration of corn oil was calculated. From the average value of the AUC of each administration group, the lipid absorption inhibition ratio was obtained by using the following formula.
Lipid absorption inhibition ratio (%)=(Average value of AUC of medium administration group-Average value of AUC of compound administration group)/Average value of AUC of medium administration group×100

Assay [2] has as its target T1, recombinant human MGAT2 enzyme (Homo sapiens, UniProt Q3SYC2).
T1 construct: made in house; host or cells: CHO-K1 (Jump-In CHO-K1 Kit, Life Technologies); microsomal fraction used as the enzyme solution
In words: Test for human MGAT2 activity inhibitory action (14C-oleoyl CoA, recombinant enzyme microsomes). The format is biochemical. As to conditions: First Test (Table 3). The procedure, abridged: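 Microsomes from CHO-K1 cells expressing human MGAT2 (0.67 μg/mL) reacted 30 min at 37 °C with 50 μM 2-monooleoyl glycerol, 50 μM oleoyl CoA, 2.2 μM 1-14C-oleoyl CoA and 8.3 μM orlistat in 50 mM Tris pH 7.4, 6 mM MgCl2, 2 mg/mL BSA, 0.3% DMSO. Heptane-extracted 14C counted; inhibition normalized between no-compound and 10 μM reference-compound controls.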

The test system of assay [3] is C57BL/6J mice fed on high-fat diet (diet-induced obesity mouse model). Nature of the assay: Test for anti-obesity action in high-fat diet fed mice. The format is in vivo. To be noted: for Body Fat Weight, average value (difference from medium administration group) / Fat-Free Weight, average value (difference from medium administration group): Day 21, quantitative NMR; for Percent Body Weight Change, average value (difference from medium administration group): forced oral once per day Day 1 to Day 22, Day 23, n=8. The text has this:
The anti-obesity action of the compound of Example 5 was examined in C57BL/6J mice fed on high-fat diet (Research Diets D12492). Thirteen-week old male C57BL/6J-DIO mice (CHARLES RIVER LABORATORIES JAPAN, INC.) were purchased, and fed in animal facilities under a 12-hour light/dark cycle for 13 weeks on the diet of D12492. From six days before the administration of the compound, the animals were habituated by inserting a tube for forced oral administration into the stomach once per day. One day before the administration of the compound, the mice were randomized on the basis of the body weight, and divided into groups (n=8). From Day 1 to Day 22, forced oral administration of the compound or a medium (0.5% methyl cellulose) was conducted once per day. The body weight was measured every day, and the body fat weight and the fat-free weight were measured by using a quantitative NMR apparatus (EcoMRI, Hitachi Aloka Medical, Ltd.) on Day 21.
The percent body weight change (Day 23, Table 6), the body fat weight (Day 21, Table 7), and the fat-free weight (Day 21, Table 8) were each expressed in terms of the difference between the average value of the compound administration group and the average value of the medium administration group, and the difference between the groups was subjected to Dunnett's multiple comparison test (significance level p=0.05). Note that, in Tables 6 to 8, “n.s.” means a non-significant difference.

Setting [4] is: 30 mg/kg, Dunnett's test versus medium group.

T1 sequence (Q3SYC2 whole entry): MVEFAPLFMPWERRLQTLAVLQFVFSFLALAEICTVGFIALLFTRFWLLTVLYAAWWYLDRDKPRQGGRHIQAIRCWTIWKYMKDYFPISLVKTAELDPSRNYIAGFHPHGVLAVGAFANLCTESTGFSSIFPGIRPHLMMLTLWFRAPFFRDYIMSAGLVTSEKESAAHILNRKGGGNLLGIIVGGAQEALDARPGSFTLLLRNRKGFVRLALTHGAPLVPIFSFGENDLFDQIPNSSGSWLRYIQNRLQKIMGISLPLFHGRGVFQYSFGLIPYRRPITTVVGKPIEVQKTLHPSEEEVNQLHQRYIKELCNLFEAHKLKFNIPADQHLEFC

As to `O=C(CNCCCCCOc1ccc(C(F)(F)F)cc1)N1CCc2nc(SC3CCC3)n(-c3ccccc3)c(=O)c2C1` [Example 5, 2-cyclobutylsulfanyl-3-phenyl-6-[2-[5-[4-(trifluoromethyl)phenoxy]pentylamino]acetyl]-7,8-dihydro-5H-pyrido[4,3-d]pyrimidin-4-one trifluoroacetate], in assay [1] (30 mg/kg, Comparative Example 1 at 100 mg/kg), the “lipid absorption inhibitory action (in words)” value is recorded as “not inferior to that of the compound of Comparative Example 1”. Also, the “Lipid absorption inhibition ratio (%)” value in assay [1] (Test 2) turned out to be 45%; in assay [1] (Test 3) it was 42%. Besides, the “vs Comp. Ex. 1” value in assay [2] (relative to Comparative Example 1, greater value = higher inhibitory action) was 349. Besides, the IC50 (as a rule, the midpoint of a concentration-inhibition curve) in assay [2] (IC50 (nM)) amounted to 0.64 nM. The figures for the “Body Fat Weight, average value (difference from medium administration group)” value in assay [3] (10 mg/kg oral once per day) and in assay [3] (30 mg/kg oral once per day) were -2.22 g and -4.26 g, respectively. Besides, the “Fat-Free Weight, average value (difference from medium administration group)” value was -0.34 g in assay [3] (10 mg/kg oral once per day) and -0.98 g in assay [3] (30 mg/kg oral once per day). In addition, the entries for the “Percent Body Weight Change, average value (difference from medium administration group)” value in assay [3] (10 mg/kg) and in assay [3] (30 mg/kg) were −4.15% and −9.56%, respectively. The “body fat weight (in words)” value in assay [3] (setting [4]) is listed as “significantly lowered”. Moreover, the “percent body weight change (in words)” value in assay [3] (setting [4]) is recorded as “significantly lowered”. Further, the “decrease of the fat-free body weight (in words)” value in assay [3] (10 and 30 mg/kg, Dunnett's test versus medium group) was “did not have a statistically significant difference”.
